Assay results from patent US20110144323A1, “AMORPHOUS AND CRYSTALLINE FORMS OF SMILAGENIN AND ITS HYDRATES” (PHYTOPHARM PLC, priority 2004, published 2011).

Assay: Vapour sorption studies
Assay type: physicochemical
Source text: As is well known, a channel hydrate is a hydrate in which the crystal lattice of the molecule forms a channel or cage enclosing a void which can wholly or partially accommodate water (or solvent) molecules. The stoichiometric (molar) ratio of smilagenin:water at any particular time will depend on such factors as the humidity of the surrounding atmosphere, as the water molecules are generally free to enter or leave the void.

## C[C@@H]1CC[C@@]2(OC1)O[C@H]1C[C@H]3[C@@H]4CC[C@@H]5C[C@@H](O)CC[C@]5(C)[C@H]4CC[C@]3(C)[C@H]1[C@@H]2C [Crystalline Form VI, smilagenin]
FIG. 11
  hygroscopicity in vapour sorption study: hygroscopic
At high humidity, i.e. a dihydrate
  water adsorbed, molar equivalents: about 2 mol. eq. water
At high humidity, water reversibly lost at low humidity (FIG. 11)
  water adsorbed in vapour sorption study: up to 9 % water
